According to PubChem BioAssay AID1918937 (Molecular Pharmacology Branch, DTP, NCI, 2023):
“And” between values parts separate entries of the source, which are not always exact repeats. Equal entries are not always repeated.

Tested on: 521955-158-R2-J5-PDC complex spheroid viability
Assay: Anticancer human tumor 521955-158-R2-J5-PDC patient-derived pancreatic carcinoma cell line growth inhibition
Conditions: for viability, T/C: stronger effect = lower value
Outline: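 Drug combinations with the LSD1 inhibitor iadademstat tested on tumor cells co-cultured as spheroids with endothelial cells and mesenchymal stem cells. Concentrations descended in half-log increments from clinical Cmax or 10 microM.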

[1] = curve of first compound, second compound 0.1 µM
[2] = curve of first compound, second compound 0.316 µM
[3] = curve of first compound, second compound 1 µM
[4] = curve of first compound, second compound 3.16 µM
[5] = curve of first compound, second compound 10 µM
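Also: spheroids exposed to agents for seven days.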
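For viability, T/C in this document: percent of DMSO vehicle control luminescence viability.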

`COc1cc(C2c3cc4c(cc3C(OC3OC5COC(C)OC5C(O)C3O)C3COC(=O)C23)OCO4)cc(OC)c1O` (configuration not stated) + NC1CC1c1ccc(-c2cccc(O)c2)cc1 showed an IC50 [1] of 198 nM, an IC50 [2] of 227 nM and an IC50 [3] of 249 nM. It also gave an IC50 [4] of 181 nM, an IC50 [5] of 265 nM and a viability, T/C (second compound 0.1 µM, first compound 0.00949 µM) of 86.6%. For the same molecule, the viability, T/C (second compound 0.1 µM, first compound 0.03 µM) was 94.8%, the viability, T/C (second compound 0.1 µM, first compound 0.0949 µM) was 66.2% and the viability, T/C (second compound 0.1 µM, first compound 0.3 µM) was 39.9%. For the same molecule, the viability, T/C (second compound 0.1 µM, first compound 0.949 µM) was 23%, the viability, T/C (second compound 0.1 µM, first compound 3 µM) was 15.3% and the viability, T/C (second compound 0.316 µM, first compound 0.00949 µM) was 87.3%. The viability, T/C (second compound 0.316 µM, first compound 0.03 µM) was 83.6%, the viability, T/C (second compound 0.316 µM, first compound 0.0949 µM) was 66.3% and the viability, T/C (second compound 0.316 µM, first compound 0.3 µM) was 44.6%. It also gave a viability, T/C (second compound 0.316 µM, first compound 0.949 µM) of 27.8%, a viability, T/C (second compound 0.316 µM, first compound 3 µM) of 19.2% and a viability, T/C (second compound 1 µM, first compound 0.00949 µM) of 84.2%. The viability, T/C (second compound 1 µM, first compound 0.03 µM) was 87.2%, the viability, T/C (second compound 1 µM, first compound 0.0949 µM) was 64% and the viability, T/C (second compound 1 µM, first compound 0.3 µM) was 47.1%. The viability, T/C (second compound 1 µM, first compound 0.949 µM) was 30.9%, the viability, T/C (second compound 1 µM, first compound 3 µM) was 20.2% and the viability, T/C (second compound 3.16 µM, first compound 0.00949 µM) was 89.4%. It also gave a viability, T/C (second compound 3.16 µM, first compound 0.03 µM) of 88.5%, a viability, T/C (second compound 3.16 µM, first compound 0.0949 µM) of 53.8% and a viability, T/C (second compound 3.16 µM, first compound 0.3 µM) of 44.4%. The viability, T/C (second compound 3.16 µM, first compound 0.949 µM) was 30.3%, the viability, T/C (second compound 3.16 µM, first compound 3 µM) was 19.8% and the viability, T/C (second compound 10 µM, first compound 0.00949 µM) was 95.9%. It also gave a viability, T/C (second compound 10 µM, first compound 0.03 µM) of 83.6%, a viability, T/C (second compound 10 µM, first compound 0.0949 µM) of 67.5% and a viability, T/C (second compound 10 µM, first compound 0.3 µM) of 49.8%. For the same molecule, the viability, T/C (second compound 10 µM, first compound 0.949 µM) was 30.6% and the viability, T/C (second compound 10 µM, first compound 3 µM) was 27%.

In the case of `COc1ccc([C@@H](O)c2cc(-c3ncnc4cc(N5CCOCC5)ccc34)c(F)cc2Cl)nn1`, the viability, T/C (compound 0.0316 µM) is reported as 99.8% and 97.6%, the viability, T/C (compound 0.1 µM) is reported as 87% and 104% and the viability, T/C (compound 0.316 µM) is reported as 73.6% and 84.4%. For the same molecule, the viability, T/C (compound 1 µM) was 57.1% and 63.2%, the viability, T/C (compound 3.16 µM) was 38.6% and 57.8% and the viability, T/C (compound 10 µM) was 22.4% and 24.5%. The IC50 (curve of compound) was 1550 nM and 3390 nM.

`CC[C@@]1(O)C(=O)OCc2c1cc1n(c2=O)Cc2cc3c(CN(C)C)c(O)ccc3nc2-1` + NC1CC1c1ccc(-c2cccc(O)c2)cc1 gave an IC50 [1] of 6.03 nM, an IC50 [2] of 6.63 nM and an IC50 [3] of 6.15 nM. It also gave an IC50 [4] of 6.19 nM, an IC50 [5] of 6.25 nM and a viability, T/C (second compound 0.1 µM, first compound 0.000316 µM) of 97.3%. For the same molecule, the viability, T/C (second compound 0.1 µM, first compound 0.001 µM) was 106%, the viability, T/C (second compound 0.1 µM, first compound 0.00316 µM) was 77.3% and the viability, T/C (second compound 0.1 µM, first compound 0.01 µM) was 28.3%. For the same molecule, the viability, T/C (second compound 0.1 µM, first compound 0.0316 µM) was 15.6%, the viability, T/C (second compound 0.1 µM, first compound 0.1 µM) was 11.7% and the viability, T/C (second compound 0.316 µM, first compound 0.000316 µM) was 94.8%. For the same molecule, the viability, T/C (second compound 0.316 µM, first compound 0.001 µM) was 94.9%, the viability, T/C (second compound 0.316 µM, first compound 0.00316 µM) was 80.5% and the viability, T/C (second compound 0.316 µM, first compound 0.01 µM) was 33.1%. The viability, T/C (second compound 0.316 µM, first compound 0.0316 µM) was 14.6%, the viability, T/C (second compound 0.316 µM, first compound 0.1 µM) was 13.1% and the viability, T/C (second compound 1 µM, first compound 0.000316 µM) was 80.2%. The viability, T/C (second compound 1 µM, first compound 0.001 µM) was 93.3%, the viability, T/C (second compound 1 µM, first compound 0.00316 µM) was 78.2% and the viability, T/C (second compound 1 µM, first compound 0.01 µM) was 29.1%. For the same molecule, the viability, T/C (second compound 1 µM, first compound 0.0316 µM) was 16.4%, the viability, T/C (second compound 1 µM, first compound 0.1 µM) was 12.7% and the viability, T/C (second compound 3.16 µM, first compound 0.000316 µM) was 83%. For the same molecule, the viability, T/C (second compound 3.16 µM, first compound 0.001 µM) was 86.8%, the viability, T/C (second compound 3.16 µM, first compound 0.00316 µM) was 71.9% and the viability, T/C (second compound 3.16 µM, first compound 0.01 µM) was 33.8%. It also gave a viability, T/C (second compound 3.16 µM, first compound 0.0316 µM) of 18.5%, a viability, T/C (second compound 3.16 µM, first compound 0.1 µM) of 12.2% and a viability, T/C (second compound 10 µM, first compound 0.000316 µM) of 103%. The viability, T/C (second compound 10 µM, first compound 0.001 µM) was 92.3%, the viability, T/C (second compound 10 µM, first compound 0.00316 µM) was 68.7% and the viability, T/C (second compound 10 µM, first compound 0.01 µM) was 37.7%. It also gave a viability, T/C (second compound 10 µM, first compound 0.0316 µM) of 21.1% and a viability, T/C (second compound 10 µM, first compound 0.1 µM) of 19.7%.
